From patent publication US7544675B2, “Chemical compounds with dual activity, processes for their preparation and pharmaceutical compositions” (UCB, S.A., priority 2002, dated 2009)

What was measured:
[1] = target: T1, human m3 muscarinic receptor (Homo sapiens, UniProt P20309); test: Affinity for human muscarinic receptors ([3H]-NMS binding, CHO cell membranes); details: qualitative statement
T1 construct: expressed in transfected cells; host or cells: CHO (Chinese Hamster Ovarian) cells, crude membrane fraction
T1 sequence (P20309 whole entry): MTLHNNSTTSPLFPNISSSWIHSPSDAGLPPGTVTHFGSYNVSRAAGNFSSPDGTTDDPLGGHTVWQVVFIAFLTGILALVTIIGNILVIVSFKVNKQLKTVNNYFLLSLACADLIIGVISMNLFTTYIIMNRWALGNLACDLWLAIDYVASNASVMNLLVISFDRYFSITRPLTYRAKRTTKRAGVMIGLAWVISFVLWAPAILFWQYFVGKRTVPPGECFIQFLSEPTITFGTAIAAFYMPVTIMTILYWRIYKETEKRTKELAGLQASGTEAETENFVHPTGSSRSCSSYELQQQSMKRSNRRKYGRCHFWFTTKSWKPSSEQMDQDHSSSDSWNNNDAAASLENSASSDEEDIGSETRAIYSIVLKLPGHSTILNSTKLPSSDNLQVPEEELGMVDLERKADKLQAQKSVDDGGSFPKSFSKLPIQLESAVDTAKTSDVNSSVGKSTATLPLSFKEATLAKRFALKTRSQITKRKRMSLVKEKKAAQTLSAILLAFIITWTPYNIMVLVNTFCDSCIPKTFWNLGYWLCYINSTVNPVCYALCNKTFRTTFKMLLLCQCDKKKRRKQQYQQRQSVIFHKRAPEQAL
Procedure: Chinese Hamster Ovarian cells (CHO) expressing the human recombinant m1, m2, m3, m4 and m5 receptors were cultured in Ham's F12 media supplemented with 100 IU/ml of penicillin, 100 μg/ml of streptomycin, 400 μg/ml of geneticin and 5% of fetal bovine serum. Cell cultures were maintained in a humidified incubator at 37° C. and 5% CO2.
Confluent CHO cells expressing human m1, m2, m3, m4 and m5 muscarinic receptors were harvested and resuspended in phosphate buffered saline without calcium and magnesium. The cell suspension was centrifuged at 1500×g for 3 min (4° C.). The cell pellet was homogenized in a 15 mM Tris-HCl (pH 7.5) buffer containing 2 mM MgCl2, 0.3 mM EDTA and 1 mM EGTA. The crude membrane fraction was collected by two consecutive centrifugation steps at 40,000×g for 25 min (4° C.). The final pellet was resuspended, at a protein concentration ranging from 2 to 6 mg/ml, in a 7.5 mM Tris-HCl (pH 7.5) buffer containing 12.5 mM MgCl2, 0.3 mM EDTA, 1 mM EGTA and 250 mM sucrose and stored in liquid nitrogen.
Binding assays were performed according to procedure described in: Buckley N. J., Bonner T. I., Buckley C. M., Brann M. R., Mol. Pharmacol. (1989), 35, 469-476, but with slight modifications.
Briefly, 25 to 50 μg of membrane proteins were incubated at room temperature in 1 ml of a 50 mM Tris-HCl (pH 7.4) buffer containing 2 mM of MgCl2, 0.1 nM of [^3H]-NMS (N-methylscopolamine, 85 Ci/mmol, from Apbiotech, UK) and increasing concentrations of test compound dissolved in DMSO (1% final concentration). Non specific binding was measured in the presence of 1 μM atropine. After 60 (m2) or 120 (m3) min. incubation, assays were stopped by rapid vacuum filtration of the samples through glass fiber filters (Filtermat A, Wallac, Belgium) presoaked in 0.3% polyethyleneimine for at least 2 h. Samples were further rinsed with 8 ml of ice-cold 50 mM Tris-HCl (pH 7.4) buffer. Radioactivity trapped onto the filter was counted in a Betaplate counter (Wallac). Competition binding curves were analyzed by non-linear regression with XLfit software (UDBS, UK).

[2] = system: PDE IV; test: PDE IV enzymatic activity (SPA phosphodiesterase assay, cytosolic fraction from U937 cells); type: biochemical; details: qualitative statement
Procedure: Cytosolic fraction from U937 cells pre-stimulated for 4 h at 37° C. with a mixture of rolipram 30 μM and salbutamol 1 μM (Torphy T. J., Zhou H. L., Cieslinski L. B., J. Pharmacol. Exp. Ther. (1992), 263 (3), 1195-1205).
Assays were performed in 100 μL of 50 mM Tris HCl buffer (pH 7.4) containing 5 mM MgCl2, 2 mM EGTA, 20 nM of [^3H]-cAMP (40-60 Ci/mmol), the cytosolic fraction of 50,000 U937 cells and the appropriate concentration of test compound (usually 10 μM) dissolved in DMSO (final assay concentration not exceeding 1%). After 30 min incubation at room temperature, 0.5 mg of SPA yttrium silicate beads are added to each sample. Radioactivity bound to the beads (5′-AMP) is determined by liquid scintillation. Non PDE IV activity and/or non specific binding of the labeled substrate to the SPA beads is defined as the residual radioactivity remaining in the presence of rolipram 32 μM (non PDE IV activity represents about 40% of total activity). PDE IV activity is determined by subtracting the non PDE TV activity from the total activity.

SMILES	Dual high affinities: m3 receptor part [1]	Dual high affinities: PDE IV part [2]
Clc1c(NC2CC2)nc(C2CC2)nc1N1CCCCCC1 [Compound 59, 6-(1-azepanyl)-5-chloro-N,2-dicyclopropyl-4-pyrimidinamine]	high affinities	high affinities
Cc1c(NC2CC2)nc(C2CC2)nc1N1CCSCC1 [Compound 119, N,2-dicyclopropyl-5-methyl-6-(4-thiomorpholinyl)-4-pyrimidinamine]	high affinities	high affinities
Nc1c(NC2CC2)nc(C2CC2)nc1N1CCCCCC1 [Compound 63, 6-(1-azepanyl)-N^4,2-dicyclopropyl-4,5-pyrimidinediamine]	high affinities	high affinities
Cc1c(N2CCCCCC2)nc(C2CC2)nc1N1CCC1 [Compound 184, 1-(6-azetidin-1-yl-2-cyclopropyl-5-methylpyrimidin-4-yl)azepane]	high affinities	high affinities
Cc1c(NC2CC2)nc(C2CC2)nc1N1CCC(F)(F)CC1 [Compound 78, N,2-dicyclopropyl-6-(4,4-difluoro-1-piperidinyl)-5-methyl-4-pyrimidinamine]	high affinities	high affinities
Cc1c(NC2CCC(C)CC2)nc(C2CC2)nc1NC1CC1 (stereo not drawn) [Compound 145, N^4,2-dicyclopropyl-5-methyl-N^6-(4-methylcyclohexyl)-4,6-pyrimidinediamine]	high affinities	high affinities
CCc1c(NC2CC2)nc(C2CC2)nc1N1CCC(C)CC1 [Compound 94, N,2-dicyclopropyl-5-ethyl-6-(4-methyl-1-piperidinyl)-4-pyrimidinamine]	high affinities	high affinities
Cc1c(NC2CC2)nc(C2CC2)nc1N1CCCC1 [Compound 180, N,2-dicyclopropyl-5-methyl-6-(1-pyrrolidinyl)-4-pyrimidinamine]	high affinities	high affinities

Continued, in another order:

Dual high affinities: m3 receptor part [1]	SMILES	Dual high affinities: PDE IV part [2]
high affinities	C=C1CCN(c2nc(C3CC3)nc(NC3CC3)c2C)CC1 [Compound 106, N,2-dicyclopropyl-5-methyl-6-(4-methylene-1-piperidinyl)-4-pyrimidinamine]	high affinities
high affinities	Cc1c(NC2CC2)nc(C2CC2)nc1N1CCCCCCC1 [Compound 72, 6-(1-azocanyl)-N,2-dicyclopropyl-5-methyl-4-pyrimidinamine]	high affinities
high affinities	Cc1c(NC2CC2)nc(C2CC2C)nc1N1CCCCCC1 (single isomer, unassigned) [Compound 67, 6-(1-azepanyl)-N-cyclopropyl-5-methyl-2-(2-methylcyclopropyl)-4-pyrimidinamine]	high affinities
high affinities	Brc1c(NC2CC2)nc(C2CC2)nc1N1CCCCCC1 [Compound 61, 6-azepan-1-yl-5-bromo-N,2-dicyclopropyl-4-pyrimidinamine]	high affinities
